Assay results published in patent US20250333388A1, “OXADIAZOLONE COMPOUNDS AND HERBICIDAL COMPOSITIONS AND USES THEREOF” (SHANDONG BINNONG TECHNOLOGY CO., LTD., priority 2023, published 2025).

Assays:
Format in all cases: in vivo
abutilon = experiment: Test of herbicidal activity, post-seedling stem and leaf spray in greenhouse, abutilon; details: for herbicidal activity against abutilon compared with Control compounds A, B and C: at different doses, summary of Table 5; for Abutilon (%) control effect: post-seedling stem and leaf spray
Protocol: (§1) Seeds of broadleaf weeds (abutilon, Solanum nigrum) or gramineous weeds (crabgrass, barnyard grass) were sown into nutrient soil in plastic cups, respectively, and then covered with soil, compacted, watered, and further cultivated in a greenhouse by conventional methods. The stems and leaves of the weeds were sprayed when the weeds reached the 2- to 3-leaf stage. The test compounds of the present application were dissolved in acetone respectively, followed by addition of Tween 80. The solution was diluted with a certain amount of water to a certain solubility, and then sprayed onto the plants using a spray tower. The test was repeated three times. After drying naturally in the shade, the plants were put in a greenhouse and managed according to conventional methods. The growth and development of weeds were observed, and the control effect of the test agent on weeds was checked visually periodically, which was expressed by 0-100%, with “0” representing no control effect, and “100%” representing complete killing or severe inhibition.

Solanum nigrum = experiment: Test of herbicidal activity, post-seedling stem and leaf spray in greenhouse, Solanum nigrum; details: for herbicidal activity against Solamum nigrum compared with Control compounds A, B and C: at different doses, summary of Table 5; for Solanum nigrum (%) control effect: post-seedling stem and leaf spray
Protocol: as §1

barnyard grass = experiment: Test of herbicidal activity, post-seedling stem and leaf spray in greenhouse, barnyard grass; details: for herbicidal activity against barnyard grass compared with Control compounds A, B and C: at different doses, summary of Table 5; for Barnyard grass (%) control effect: post-seedling stem and leaf spray
Protocol: as §1

rice = experiment: Safety testing on rice, stem and leaf spray in greenhouse; details: for inhibitory effect on rice (crop safety): at different doses, as compared to Control compounds A, B, and C, summary of Table 6; for Rice (%) safety (crop damage): stem and leaf spray
Protocol: (§2) The seeds of corn and rice were sown into nutrient soil in plastic cups, respectively, then covered with soil, compacted, watered, and further cultivated in a greenhouse by conventional methods. The stems and leaves of the crops were sprayed when the crops reached the 2- to 3-leaf stage. The test compounds of the present application were dissolved in acetone, followed by addition of Tween 80. The solution was then diluted with a certain amount of water to a certain solubility, and sprayed onto the plants using a spray tower. The test was repeated three times. After drying naturally in the shade, the plants were put in a greenhouse and managed according to conventional methods. The growth and development of corn and rice were observed, and the safety of the test agent on corn and rice was checked visually periodically. A safety grading standard was represented by 0-100%, with “O” representing no damage to crops, and “100%” representing complete killing or severe inhibition of crops.

crabgrass = experiment: Test of herbicidal activity, post-seedling stem and leaf spray in greenhouse, crabgrass; details: for herbicidal activity against crabgrass compared with Control compounds A, B and C: at different doses, summary of Table 5; for Crabgrass (%) control effect: post-seedling stem and leaf spray
Protocol: as §1

corn = experiment: Safety testing on corn, stem and leaf spray in greenhouse; details: for inhibitory effect on corn (crop safety): at different doses, as compared to Control compounds A, B, and C, summary of Table 6; for Corn (%) safety (crop damage): stem and leaf spray
Protocol: as §2

[1] = dose 300 g a.i/ha, 0 = no control effect, 100% = complete killing or severe inhibition
[2] = dose 300 g a.i/ha, 0 = no damage to crops, 100% = complete killing or severe inhibition

Row | Structure (SMILES) | Abutilon (%) control effect (abutilon; dose 37.5 g a.i/ha) [%] | Abutilon (%) control effect (abutilon; dose 75 g a.i/ha) [%] | Abutilon (%) control effect (abutilon; dose 150 g a.i/ha) [%] | Abutilon (%) control effect (abutilon; [1]) [%] | Solanum nigrum (%) control effect (Solanum nigrum; dose 37.5 g a.i/ha) [%] | Solanum nigrum (%) control effect (Solanum nigrum; dose 75 g a.i/ha) [%] | Solanum nigrum (%) control effect (Solanum nigrum; dose 150 g a.i/ha) [%] | Solanum nigrum (%) control effect (Solanum nigrum; dose 300 g a.i/ha) [%] | Barnyard grass (%) control effect (barnyard grass; dose 37.5 g a.i/ha) [%] | Barnyard grass (%) control effect (barnyard grass; dose 75 g a.i/ha) [%] | Barnyard grass (%) control effect (barnyard grass; dose 150 g a.i/ha) [%] | Barnyard grass (%) control effect (barnyard grass; dose 300 g a.i/ha) [%] | Rice (%) safety (crop damage) (rice; dose 37.5 g a.i/ha) [%] | Rice (%) safety (crop damage) (rice; dose 75 g a.i/ha) [%] | Rice (%) safety (crop damage) (rice; dose 150 g a.i/ha) [%] | Rice (%) safety (crop damage) (rice; dose 300 g a.i/ha) [%] | Crabgrass (%) control effect (crabgrass; dose 37.5 g a.i/ha) [%] | Crabgrass (%) control effect (crabgrass; dose 75 g a.i/ha) [%] | Crabgrass (%) control effect (crabgrass; dose 150 g a.i/ha) [%] | Crabgrass (%) control effect (crabgrass; dose 300 g a.i/ha) [%] | further results
1 | Cc1nn(Cc2c(S(C)(=O)=O)ccc(C(=O)c3c(C4CC4)nn(C)c3OC(=O)c3c(C)nn(C)c3Cl)c2Cl)c(=O)o1 [Compound 201] | 55 | 80 | 92 | 98 | 55 | 75 | 95 | 100 | 55 | 75 | 95 | 100 | 0 | 0 | 0 | 2 | 45 | 65 | 80 | 90 | herbicidal activity against abutilon compared with Control compounds A, B and C (abutilon): better herbicidal activities; herbicidal activity against Solamum nigrum compared with Control compounds A, B and C (Solanum nigrum): better herbicidal activities; herbicidal activity against barnyard grass compared with Control compounds A, B and C (barnyard grass): better herbicidal activities; inhibitory effect on rice (crop safety) (rice): no significant inhibitory effect; herbicidal activity against crabgrass compared with Control compounds A, B and C (crabgrass): better herbicidal activities; inhibitory effect on corn (crop safety) (corn): no significant inhibitory effect; Corn (%) safety (crop damage) (corn; dose 37.5 g a.i/ha): 0%; Corn (%) safety (crop damage) (corn; dose 75 g a.i/ha): 0%; Corn (%) safety (crop damage) (corn; dose 150 g a.i/ha): 0%; Corn (%) safety (crop damage) (corn; [2]): 0%
2 | CCS(=O)(=O)c1ccc(C(=O)c2c(C)nn(C)c2OC(=O)c2cc(C)nn2C)c(Cl)c1Cn1nc(C)oc1=O [Compound 224] | 55 | 80 | 90 | 92 | 50 | 70 | 90 | 93 | 50 | 70 | 85 | 88 | 0 | 0 | 2 | 5 | 45 | 65 | 80 | 84 | herbicidal activity against abutilon compared with Control compounds A, B and C (abutilon): better herbicidal activities; herbicidal activity against Solamum nigrum compared with Control compounds A, B and C (Solanum nigrum): better herbicidal activities; herbicidal activity against barnyard grass compared with Control compounds A, B and C (barnyard grass): better herbicidal activities; inhibitory effect on rice (crop safety) (rice): no significant inhibitory effect; herbicidal activity against crabgrass compared with Control compounds A, B and C (crabgrass): better herbicidal activities; inhibitory effect on corn (crop safety) (corn): no significant inhibitory effect; Corn (%) safety (crop damage) (corn; dose 37.5 g a.i/ha): 0%; Corn (%) safety (crop damage) (corn; dose 75 g a.i/ha): 0%; Corn (%) safety (crop damage) (corn; dose 150 g a.i/ha): 0%; Corn (%) safety (crop damage) (corn; [2]): 2%
3 | CS(=O)(=O)c1ccc(C(=O)C2C(=O)CCCC2=O)c(Cl)c1 [Control compound A, reference compound] | 50 | 80 | 98 | 100 | 50 | 70 | 90 | 95 | 10 | 30 | 50 | 60 | 10 | 25 | 45 | 60 | 5 | 25 | 45 | 50 | Corn (%) safety (crop damage) (corn; dose 37.5 g a.i/ha): 0%; Corn (%) safety (crop damage) (corn; dose 75 g a.i/ha): 0%; Corn (%) safety (crop damage) (corn; dose 150 g a.i/ha): 0%; Corn (%) safety (crop damage) (corn; [2]): 5%
4 | Cc1nn(C)c(O)c1C(=O)c1ccc(S(C)(=O)=O)cc1Cl [Control compound B, reference compound] | 45 | 55 | 75 | 85 | 40 | 50 | 65 | 70 | 10 | 25 | 45 | 55 | 10 | 20 | 40 | 55 | 5 | 15 | 40 | 45 | Corn (%) safety (crop damage) (corn; dose 37.5 g a.i/ha): 0%; Corn (%) safety (crop damage) (corn; dose 75 g a.i/ha): 0%; Corn (%) safety (crop damage) (corn; dose 150 g a.i/ha): 0%; Corn (%) safety (crop damage) (corn; [2]): 2%
5 | CS(=O)(=O)c1ccc(C(=O)C2C(=O)CCCC2=O)c(Cl)c1CN1CCOCC1 [Control compound C, reference compound] | 45 | 55 | 70 | 90 | 40 | 50 | 65 | 85 | 35 | 60 | 70 | 75 | 30 | 55 | 75 | 85 | 20 | 55 | 65 | 70 | Corn (%) safety (crop damage) (corn; dose 37.5 g a.i/ha): 0%; Corn (%) safety (crop damage) (corn; dose 75 g a.i/ha): 0%; Corn (%) safety (crop damage) (corn; dose 150 g a.i/ha): 2%; Corn (%) safety (crop damage) (corn; [2]): 5%
